Experimental data published in ChEMBL document CHEMBL1129361, “Modulators of leukotriene biosynthesis and receptor activation” (J Med Chem, 1996).

What was measured:
[1] = phase 1 oral half life at a dose 200 mg.; format: ADME, organism-based; details: human, in vivo
Cavia porcellus [2] = test: Compound was tested for in vivo inhibition against gp AA bronchospasm.; format: functional; details: Bronchiole
[3] = (§1) Compound was tested for in vivo inhibition against gp antigen bronchospasm.; format: functional; details: Cavia porcellus, Bronchiole
Homo sapiens [4] = species: Homo sapiens; test: Compound was tested for in vitro inhibition against human whole blood.; format: functional
Mus musculus [5] = test: Compound was tested for in vivo inhibition against mouse AA ear edema.; format: functional
Homo sapiens [6] = species: Homo sapiens; test: Compound was tested for in vitro inhibition against human PMNL.; format: functional
RBL-1 [7] = test: Compound was tested for in vitro inhibition against broken RBL-1.; format: functional; details: Rattus norvegicus
Rattus norvegicus [8] = test: Compound was tested for in vivo inhibition against rat peritoneal anaphylaxis.; format: functional
Cavia porcellus [9] = test: Compound was tested in vivo inhibitory activity against LTB4 induced bronchoconstriction (intravenous); format: functional
Cavia porcellus [10] = test: Compound was tested in vivo inhibitory activity against LTB4 induced bronchoconstriction (orally); format: functional; details: po
[11] = phase 1 oral half life at a dose 200 mg. (200 mg provided >95% inhibition of ex vivo stimulated LTB4 in blood up to 18 hour post dose); format: organism-based; details: human
Cavia porcellus [12] = test: as §1; format: functional; details: Bronchiole
[13] = target: T1, Cysteinyl leukotriene receptor (Homo sapiens, UniProt Q9Y271+Q9NS75); test: Binding affinity against Cysteinyl leukotriene D4 receptor; format: protein assay
T1 sequence (Q9Y271 whole entry): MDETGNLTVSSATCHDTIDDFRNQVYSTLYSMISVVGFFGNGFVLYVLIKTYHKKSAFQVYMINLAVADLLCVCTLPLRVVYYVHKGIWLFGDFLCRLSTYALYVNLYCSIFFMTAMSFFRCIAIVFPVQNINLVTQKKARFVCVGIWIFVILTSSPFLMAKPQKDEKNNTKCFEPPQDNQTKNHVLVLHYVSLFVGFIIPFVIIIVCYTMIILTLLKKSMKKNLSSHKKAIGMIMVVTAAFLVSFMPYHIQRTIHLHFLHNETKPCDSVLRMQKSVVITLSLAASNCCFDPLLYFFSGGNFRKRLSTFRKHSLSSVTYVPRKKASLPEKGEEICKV
T1 sequence (Q9NS75 whole entry): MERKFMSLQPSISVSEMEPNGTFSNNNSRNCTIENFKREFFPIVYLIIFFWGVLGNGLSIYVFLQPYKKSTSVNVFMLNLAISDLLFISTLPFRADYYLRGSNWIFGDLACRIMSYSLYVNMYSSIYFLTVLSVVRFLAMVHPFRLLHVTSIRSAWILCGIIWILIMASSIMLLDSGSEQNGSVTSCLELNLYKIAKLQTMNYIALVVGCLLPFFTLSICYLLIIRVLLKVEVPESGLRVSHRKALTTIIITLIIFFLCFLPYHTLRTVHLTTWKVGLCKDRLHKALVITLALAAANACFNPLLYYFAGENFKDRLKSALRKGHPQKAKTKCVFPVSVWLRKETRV

Homo sapiens [14] = test: Compound was tested for fold shift in LTD4 dose response curve following 1 g oral dose; format: functional
Cavia porcellus [15] = test: Compound was tested in vivo inhibitory activity against LTB4 induced bronchoconstriction in guinea pig (intravenous).; format: functional
Cavia porcellus [16] = test: Compound was tested in vivo inhibitory activity against LTB4 induced bronchoconstriction in guinea pig(po); format: functional
Cavia porcellus [17] = species: Cavia porcellus; test: Compound was tested for LTD4 induced guinea pig trachea contraction; format: functional; details: read-out: pA2 (converted)
Cavia porcellus [18] = species: Cavia porcellus; test: Compound was evaluated for LTD4 induced against guinea pig trachea contraction; format: functional
Homo sapiens [19] = test: LTD4 induced broncho constriction (shift in dose response curve 2 hr following 800 mg oral dose); format: functional
Cavia porcellus [20] = test: Compound was tested in vivo for LTB4 induced neutrophil chemotaxis in guinea pig(orally) at duration 5.5 h; format: functional; details: po
Homo sapiens [21] = species: Homo sapiens; test: Compound was tested in vitro for inhibitory activity in LTB4 induced neutrophil degranulation; format: functional
Mus musculus [22] = test: Compound was tested in vivo inhibitory activity against PMA induced ear edema.; format: functional
Homo sapiens [23] = test: Fold shift in LTD4 dose response curve following 250 mg oral dose.; format: functional
[24] = target: T2, Cysteinyl leukotriene receptor 1 (Homo sapiens, UniProt Q9Y271); test: Compound was tested for inhibitory activity against LTD4 (leukotriene).; format: functional
T2 sequence (Q9Y271 whole entry): T1 sequence (Q9Y271 whole entry)

[25] = phase 1 oral half life at a dose 50 mg - 750 mg.; format: ADME, organism-based; details: human, in vivo
Rattus norvegicus [26] = test: Compound was tested for in vivo inhibition against rat zymosan induced exudate.; format: functional
Rattus norvegicus [27] = species: Rattus norvegicus; test: Compound was tested for in vitro inhibition against Rat PMNL; format: functional
Homo sapiens [28] = test: Compound was evaluated for LTD4 induced bronchoconstriction (shift in dose response curve 2 hr after 40 mg oral administration); format: functional
Homo sapiens [29] = test: Compound was evaluated for LTD4 induced bronchoconstriction (shift in dose response curve 2 hr after 40 mg oral administration) shift persisted for 24 hrs; format: functional
Cavia porcellus [30] = species: Cavia porcellus; test: Compound was evaluated for LTD4 induced guinea pig trachea contraction; details: read-out: pA2 (converted)
Cavia porcellus [31] = test: Compound was tested for in vivo inhibition against gp antigen bronchospasm; format: functional; details: Bronchiole
Homo sapiens [32] = species: Homo sapiens; test: Compound was tested for in vitro inhibition against human whole blood; format: functional
Mus musculus [33] = test: Compound was tested for in vivo inhibition against mouse AA ear edema; format: functional
Mus musculus [34] = species: Mus musculus; test: Compound was tested for in vitro inhibition against murine macrophage; format: functional
Rattus norvegicus [35] = test: Compound was tested for in vivo inhibition against rat zymosan-inflamed air pouch; format: functional
[36] = Phase 1 oral half life was determined; format: ADME, organism-based; details: human, in vivo
Cavia porcellus [37] = test: Compound was tested for in vivo inhibition on gp AA bronchospasm.; format: functional; details: Bronchiole
Cavia porcellus [38] = test: Compound was tested for in vivo inhibition on gp antigen bronchospasm.; format: functional; details: Bronchiole
Homo sapiens [39] = species: Homo sapiens; test: Compound was tested for in vitro inhibition on human whole blood.; format: functional
Mus musculus [40] = test: Compound was tested for in vivo inhibition on mouse AA ear edema.; format: functional
Homo sapiens [41] = species: Homo sapiens; test: Compound was tested for in vitro inhibition on human PMNL.; format: functional
RBL-1 [42] = test: Compound was tested for in vitro inhibition on broken RBL-1.; format: functional; details: Rattus norvegicus
Rattus norvegicus [43] = test: Compound was tested for in vivo inhibition on rat peritoneal anaphylaxis.; format: functional

In the case of `C[C@H](C#Cc1ccc(Oc2ccc(F)cc2)o1)N(O)C(N)=O`, the half-life [1] is reported as 420 min, the ED50 (Cavia porcellus [2]) is reported as 2 mg/kg and the ED50 [3] is reported as 2.5 mg/kg. The IC50 (Homo sapiens [4]) was 80 nM, the ED50 (Mus musculus [5]) was 3 mg/kg and the IC50 (Homo sapiens [6]) was 25 nM. It also gave an IC50 (RBL-1 [7]) of 54 nM and an ED50 (Rattus norvegicus [8]) of 1.5 mg/kg.

`CCCc1c(OCCCOc2cc(O)c(C(C)=O)cc2CC)ccc2c1OC(C(=O)O)CC2` (centres undefined) showed an ED50 (Cavia porcellus [9]) of 0.23 mg/kg and an ED50 (Cavia porcellus [10]) of 0.5 mg/kg.

`C[C@H](C#Cc1ccc(Cc2ccc(F)cc2)s1)N(O)C(N)=O` [ATRELEUTON] gave a half-life [11] of 900 min, an ED50 (Cavia porcellus [12]) of 4 mg/kg and an IC50 (Homo sapiens [4]) of 150 nM. For the same compound, the IC50 (Homo sapiens [6]) was 23 nM, the IC50 (RBL-1 [7]) was 23 nM and the ED50 (Rattus norvegicus [8]) was 0.6 mg/kg.

With `CCCc1c(OCCCS(=O)(=O)c2ccc(C(=O)CCC(=O)O)cc2)ccc(C(C)=O)c1O` [L-648051] the Ki [13] was 6200 nM.

`CCCc1c(OCCCSc2ccc([C@@H](O)[C@H](C)CC(=O)O)cc2)ccc(C(C)=O)c1O` [L-649923] gave a Ki [13] of 400 nM and an Activity (Homo sapiens [14]) of 3.8.

`CCc1cc(C(C)=O)c(O)cc1OCCCCCC(C)(C)c1nn[nH]n1` [LY-255283] showed an ED50 (Cavia porcellus [15]) of 2.8 mg/kg and an ED50 (Cavia porcellus [16]) of 11 mg/kg.

In the case of `CC(C)(O)c1ccccc1CC[C@@H](SCC1(CC(=O)O)CC1)c1cccc(/C=C/c2ccc3ccc(Cl)cc3n2)c1` [MONTELUKAST], the Kb (Cavia porcellus [17]) is reported as 0.501 nM.

Compound `CCCCCC(O)c1cccc(OCc2ccc3ccccc3n2)c1` (centres undefined) [REV-5901] has a Ki [13] of 700 nM and a pKB (Cavia porcellus [18]) of 5.5.

`c1ccc(Cc2nn[nH]n2)c(COc2ccc(OCc3ccc4ccccc4n3)cc2)c1` [RG-12525] showed a Ki [13] of 3 nM and an Activity (Homo sapiens [19]) of 7.5.

In the case of `CCCc1c(OCCCOc2ccc(C(C)=O)c(OC)c2CCC)ccc2c1OC(C(=O)O)CC2` (centres undefined) [SC-41390], the ED50 (Cavia porcellus [20]) is reported as 1.7 mg/kg, the IC50 (Homo sapiens [21]) is reported as 1080 nM and the ED50 (Mus musculus [22]) is reported as 4.2 µM.

`O=C(O)c1ccccc1Nc1cccc(OCc2ccc3ccccc3n2)c1` [SR-2640] gave an Activity (Homo sapiens [23]) of under 2 and an IC50 [24] of 23 nM.

In the case of `O=C(O)[C@@H](c1ccc(OCc2ccc3ccccc3n2)cc1)C1CCCC1` [VELIFLAPON], the half-life [25] is reported as 240 min, the ED50 (Cavia porcellus [12]) is reported as 6.3 mg/kg and the IC50 (Homo sapiens [4]) is reported as 11600 nM. The ED50 (Mus musculus [5]) was 49 mg/kg, the IC50 (Homo sapiens [6]) was 220 nM and the ED50 (Rattus norvegicus [26]) was 8 mg/kg. It also gave an IC50 (Rattus norvegicus [27]) of 26 nM.

For `COc1cc(C(=O)NS(=O)(=O)c2ccccc2C)ccc1Cc1cn(C)c2ccc(NC(=O)OC3CCCC3)cc12` [ZAFIRLUKAST], the Activity (Homo sapiens [28]) was 117, the Activity (Homo sapiens [29]) was 5 and the Kb (Cavia porcellus [30]) was 0.316 nM.

`COC1(c2cc(F)cc(OCc3ccc4c(ccc(=O)n4C)c3)c2)CCOCC1` [ZD-2138] gave an ED50 (Cavia porcellus [31]) of 0.1 mg/kg, an IC50 (Homo sapiens [32]) of 20 nM and an ED50 (Mus musculus [33]) of 1.8 mg/kg. The IC50 (Mus musculus [34]) was 3 nM and the ED50 (Rattus norvegicus [35]) was 0.3 mg/kg.

Work on `CC(c1cc2ccccc2s1)N(O)C(N)=O` (centres undefined) [ZILEUTON] yielded a half-life [36] of 180 min, an ED50 (Cavia porcellus [37]) of 18 mg/kg and an ED50 (Cavia porcellus [38]) of 12 mg/kg. It also gave an IC50 (Homo sapiens [39]) of 700 nM, an ED50 (Mus musculus [40]) of 31 mg/kg and an IC50 (Homo sapiens [41]) of 600 nM. The IC50 (RBL-1 [42]) was 100 nM and the ED50 (Rattus norvegicus [43]) was 3 mg/kg.
